Test results taken from patent US20070037202A1, “Potentiation of cancer therapies by ZNF217 inhibition” (Regents of the University of California, priority 2002, published 2007).

Key:
[1] = system: 184 HMEC and ZNF217 immortalized HMEC; experiment: Doxorubicin induced cell death in ZNF217 transduced versus parental HMEC; assay type: cell-based; conditions: 100 ng/ml doxorubicin; p=0.0146
Text: In order to determine if ZNF217 could confer resistance to doxorubicin on primary mammary epithelial cells, the sensitivity of HMECs which had been previously immortalized by a ZNF217-HA expression construct (Nonet, G. H. et al., 2001, supra) were compared to parental 184 HMECs with finite life span. […] Thus, as well as promoting HMEC immortalization, ZNF217 expression protects HMEC against doxorubicin-induced apoptosis.

HBL100 cells = experiment: Apoptosis assay, annexin V staining; assay type: cell-based, human; conditions: for annexin staining: HBL100
Experimental: (§1) 1.5×10^5 of Hela cells, ZNF217-GFP transfected HeLa cells, HBL100 cells and ZNF217-GFP transfected HBL100 cells were set up in six well plates and cultured as described above. One the second day, the cells were treated with 100 ng/ml doxirubicin for 16 hours. The cell culture supernatants and cells were collected and washed twice with PBS, resuspended in 100 μl of binding buffer (10 mM HEPS, 140 mM NaCl and 2.5 mM CaCl2, pH 7.4). 5 μl of Annexin V antibody (Alexa Fluor 633 from Molecular Probes) was added and the cells were incubated at room temperature for 15 minutes. After the incubation, 400 μl of binding buffer were added and cell samples were analyzed by flow cytometry. A 633-nm wavelength laser was used to measure the apoptotic cell population. For imaging 1.5×10^4 cells were seeded in 4 well cover glass slides (Fisher). Doxorubicin treating cells 16 hours later, the cells were washed with PBS twice and 200 μl of binding buffer were added, staining process was as same as above and in the meantime, 0.5 μM of DAPI were added to satin the cell nucleus. After staining, the cells were washed twice again with PBS, 400 μl of Binding buffer were added. The apoptotic cells were imaged in Seize con-focal image system.

[2] = system: HBL100 cells transfected with ZNF217-EGFP; experiment: Apoptosis assay, annexin V staining; assay type: cell-based, human; conditions: for annexin staining: ZNF217-EGFP transfected HBL100
Experimental: as §1
ZNF217 silencing RNA (siRNA) constructs were introduced into HBL100 cells transfected with znf217 and the cells were subsequently treated with Doxorubicin.
The siRNA Dicer Generation kit from Gene Therapy System was used to generate a series of siRNAs. Approximately 30 different 22 bp siRNA sequences were generated, using the following primers: […]

[3] = system: MCF7, 600MPE and HBL100 breast cancer cell lines; experiment: Sensitivity of breast cancer cell lines to doxorubicin (cell death)
[4] = increasing concentrations, in combination with doxorubicin
[5] = not also treated with doxorubicin

Row | Compound | less cell death in ZNF217 transduced cells than in control non-transduced 184 HMEC [1] | cells stained with annexin (HBL100 cells; control HBL100 cells, doxorubicin treatment) | cells stained with annexin ([2]; ZNF217 transfected HBL100, doxorubicin treatment) | cell death upon exposure to doxorubicin ([3]; HBL100 compared with MCF7 and 600MPE) | resistance to doxorubicin of cell lines with high relative ZNF217 expression versus HBL100 ([3]; MCF7 and 600MPE versus HBL100, all wild type TP53) | annexin staining (HBL100 cells; [4]) | annexin staining (HBL100 cells; [5]) | cell death (HBL100 cells; HBL100 not transfected (FIG. 11), increasing concentrations, in combination with Doxorubicon) | cell death ([2]; HBL100 transfected with ZNF217-encoding constructs (FIG. 12), increasing concentrations, in combination with Doxorubicon) | annexin staining [2, 4] | annexin staining [2, 5]
1 | COc1cccc2c1C(=O)c1c(O)c3c(c(O)c1C2=O)C[C@@](O)(C(=O)CO)C[C@@H]3O[C@H]1C[C@H](N)[C@H](O)[C@H](C)O1 [doxorubicin] | 2.5 fold | About 80% | Less than 40% | higher levels of cell death | three to five-fold more resistant |  |  |  |  |  | 
2 | CN1N=C(N)c2cn([C@@H]3O[C@H](COP(=O)(O)O)[C@@H](O)[C@H]3O)c3ncnc1c23 [triciribine phosphate] |  |  |  |  |  | increased annexin staining | did not display significant staining | increased cell death | increased cell death | increased annexin staining | did not display significant staining
